From ChEMBL document CHEMBL4052753, “Antileishmanial potential of fused 5-(pyrazin-2-yl)-4H-1,2,4-triazole-3-thiols: Synthesis, biological evaluations and computational studies” (Bioorg Med Chem Lett, 2017) come the findings set out here.

A short description of data set [1]: Antioxidant activity assessed as DPPH free radical scavenging activity after 30 mins. In kind it is functional.
Data set [2] deals with Leishmania donovani. The data set can be described thus: Antileishmanial activity against Leishmania donovani NHOM/IN/80/DD8 promastigote forms assessed as reduction in parasite growth after 72 hrs by MTT assay. In kind it is functional. The settings on record: NHOM/IN/80/DD8, 72 h.
Another data set concerns HeLa. The data set can be described thus: Cytotoxicity against human HeLa cells at 500 ug/ml after 72 hrs by MTT assay. Type of data set: cell-based.
Data set [3] concerns Leishmania donovani. The data set can be described thus: Antileishmanial activity against Leishmania donovani NHOM/IN/80/DD8 promastigote forms assessed as reduction in parasite growth up to 500 uM after 72 hrs by MTT assay. Type of data set: functional.

Active and inactive are the calls of the source. No cut-off for these calls is given here.

Consider `Oc1ccc(/C=N/n2c(S)nnc2-c2cnccn2)c(O)c1`, for which the values for the IC50 (in data set [1]; with Leishmania donovani [2]) were 75.9 µM and 106 µM, respectively.
In the case of `Oc1ccc(/C=N/n2c(S)nnc2-c2cnccn2)cc1`, the IC50 in data set [1] was found to be 58.9 µM; in the data set with Leishmania donovani [2], 79 µM. Also, the Activity entry with HeLa is listed as “Non-Toxic”.
Turning to `Fc1ccc(NC(=S)Nn2c(S)nnc2-c2cnccn2)c(F)c1`, the values for the IC50 (in data set [1]; in the data set with Leishmania donovani [2]) were 58.9 µM and 176 µM, respectively.
As to `S=C(Nc1ccc(Cl)c(Cl)c1)Nn1c(S)nnc1-c1cnccn1`, the half-maximal inhibitory concentration (IC50) in data set [1] is 81.2 µM; with Leishmania donovani [2], 229 µM.
In the case of `S=C(Nc1ccc(Cl)cc1)Nn1c(S)nnc1-c1cnccn1`, the result in the data set with Leishmania donovani [3] was inactive. Further, in data set [1], the IC50 was 75.9 µM.
Turning to `Fc1ccc(/C=N/n2c(S)nnc2-c2cnccn2)cc1`, the IC50 worked out at 58.8 µM in data set [1] and 382 µM with Leishmania donovani [2].
The matching figures for `Fc1ccc(NC(=S)Nn2c(S)nnc2-c2cnccn2)cc1`: 69.2 µM and 322 µM.
The matching figures for `Sc1nnc(-c2cnccn2)n1/N=C/c1ccc(Cl)cc1Cl`: 81.2 µM and 241 µM.
For the molecule `CCc1ccc(/C=N/n2c(S)nnc2-c2cnccn2)cc1`, the values for the IC50 (in data set [1]; with Leishmania donovani [2]) were 47.7 µM and 201 µM, respectively.
As to `S=C(Nc1ccc2ccccc2c1)Nn1c(S)nnc1-c1cnccn1`, the figures for the 50% inhibitory concentration (IC50) (in data set [1]; in the data set with Leishmania donovani [2]) were 75.9 µM and 336 µM, respectively.
In the same order, the values of `O=[N+]([O-])c1cccc(/C=N/n2c(S)nnc2-c2cnccn2)c1` are 72.4 µM and 347 µM.
The matching figures for `Oc1ccccc1/C=N/n1c(S)nnc1-c1cnccn1`: 75.9 µM and 102 µM.
In the same order, the values of `CN(C)c1ccc(/C=N/n2c(S)nnc2-c2cnccn2)cc1` are 14 µM and 113 µM.
For the molecule `FC(F)(F)c1ccc(NC(=S)Nn2c(S)nnc2-c2cnccn2)cc1`, the IC50 in data set [1] is 58.8 µM; in the data set on Leishmania donovani [2] it was 289 µM.
In the case of `Oc1ccc2ccccc2c1/C=N/n1c(S)nnc1-c1cnccn1`, the results for the IC50 (in data set [1]; in the data set with Leishmania donovani [2]) were 69.2 µM and 178 µM, respectively.
In the same order, the values of `Sc1nnc(-c2cnccn2)n1/N=C/c1ccc(Cl)cc1` are 39.8 µM and 198 µM.
In the same order, the values of `Fc1cccc(NC(=S)Nn2c(S)nnc2-c2cnccn2)c1` are 14 µM and 287 µM.
In the same order, the values of `Sc1nnc(-c2cnccn2)n1/N=C/c1ccccc1` are 52.4 µM and 95.2 µM.
In the case of `S=C(Nc1ccccc1)Nn1c(S)nnc1-c1cnccn1`, in the data set on Leishmania donovani [3], the result was inactive. For the same molecule, the IC50 in data set [1] was 58.8 µM.
For the molecule `CCOc1ccc(/C=N/n2c(S)nnc2-c2cnccn2)cc1OC`, the IC50 in data set [1] is 58.8 µM; in the data set with Leishmania donovani [2] it was 190 µM.
The matching figures for `S=C(Nc1ccc(Cl)cc1Cl)Nn1c(S)nnc1-c1cnccn1`: 58.9 µM and 79 µM.
The matching figures for `N#Cc1ccc(/C=N/n2c(S)nnc2-c2cnccn2)cc1`: 47.8 µM and 99 µM.
With `O=C1O[C@H]([C@@H](O)CO)C(O)=C1O` [ASCORBIC ACID], in data set [1], the IC50 was found to be 14 µM.
